Assay results published in paper PMC10470178, “Long-acting lenacapavir protects macaques against intravenous challenge with simian-tropic HIV” (eBioMedicine, 2023).
Where two headings read alike, the source gives them in different places.

Assay: Pharmacokinetics of subcutaneous LEN in pigtail macaques
Format: in vivo, pigtail macaques (Macaca nemestrina)
Settings: for range of peak plasma LEN concentration after second dose / mean peak plasma LEN concentration after first dose / range of peak plasma LEN concentration after first dose: N = 3; for time mean plasma drug concentrations above the PA-EC95: two doses 6 weeks apart; for half-life: sc
Procedure: Sixteen male, purpose-bred pigtail macaques (Macaca nemestrina; ages 4.6–8.5 years at the time of study initiation) were housed at NIH-Bethesda (Supplementary Table S1). All study animals received enrofloxacin (10 mg/kg, administered orally, once per day for 10 days), paromomycin (25 mg/kg, administered orally, twice daily for 7–10 days), and fenbendazole (50 mg/kg administered orally, once per day for 5 days) two weeks to 43 months prior to study initiation. Lenacapavir or drug vehicle (sterile, preservative-free 57.5% w/v polyethylene glycol 300 in water) doses were administered to sedated animals via SC injection into the scapular region such that no more than 2 ml of solution was injected into a single SC site. Animals in the LEN pharmacokinetic evaluation study (N = 6) each received two doses of LEN, both at 15 mg/kg (N = 3) or at 50 mg/kg (N = 3), 6 weeks apart. Animals in the virus challenge experiment each received a single dose of LEN at 25 mg/kg (N = 3, LEN PrEP group) or drug vehicle (N = 4, vehicle control group) 30 days prior to stHIV-A19 challenge, or a cART regimen consisting of tenofovir disoproxil fumarate (TDF), emtricitabine (FTC), and dolutegravir (DTG) (N = 3, TDF/FTC/DTG group), coformulated and administered as previously described[29]^,[30] for 7 days beginning 3 days prior to stHIV-A19 challenge (Supplementary Figure S1). Hair was clipped and skin marked at LEN and vehicle injection sites to allow for subsequent visual and manual assessment and scoring of potential ISRs by non-blinded veterinary care staff. Complete blood counts (CBC) and serum chemistries were monitored prior to and at 2- to 4-week intervals after LEN administration for at least one year. Following the first dose of LEN in the PK study, one animal in the 50-mg/kg dosing group received 7 consecutive days of daily ketoprofen (2 mg/kg) administered intramuscularly for ISR analgesia at veterinary discretion. For the second dose of LEN in the PK study, all animals in the 50-mg/kg dosing group received 5–7 consecutive days of twice daily oral carprofen (2 mg/kg) analgesia administered prophylactically starting on the day of LEN dosing. In the IV challenge PrEP study, all LEN and vehicle control animals received 3–5 consecutive days of twice daily oral carprofen (2 mg/kg) analgesia administered prophylactically starting on the day of injection. For virus challenge, PrEP study animals each received 1 × 10^5 infectious units of stHIV-A19 injected intravenously. After LEN washout, LEN PrEP group animals received a single 50-mg/kg dose of rhesusized depleting anti-CD8α antibody (MT807R1, RRID: AB_2716320, NIH Nonhuman Primate Reagent Resource), administered SC to anesthetized animals.
Whole blood was collected in EDTA Vacutainer Tubes (BD) from sedated animals. Plasma for vRNA quantification, LEN concentration determination, and HIV-1 Western blot analysis was separated from whole blood and clarified by centrifugation, and then stored at −80 °C. Following plasma separation, the blood cellular component was resuspended in an equivalent volume of PBS and then PBMCs were isolated by Ficoll-Paque Plus (GE Healthcare) gradient centrifugation. Portions of isolated PBMC samples were cryopreserved as dry cell pellets for CA-vDNA quantification.
Pigtail macaque plasma samples stored frozen at −80 °C were thawed, and a 50 μl aliquot of each was treated with 200 μl acetonitrile containing a generic internal small-molecule standard. After precipitation of the protein component, a 150 μl aliquot of the supernatant was transferred to a clean 96-well plate and evaporated to dryness under a nitrogen stream. The samples were reconstituted with 100 μL of 50% acetonitrile and then injected into an API-6500+ QTRAP triple quadrupole mass spectrometer (SciEx) with electrospray ionization in positive mode. […]

[1] = 15 mg/kg SC on Study Day 0 and 42, PTM, N = 3, mean ± SD
[2] = 25 mg/kg single SC dose on Study Day 0, PTM, N = 3, mean ± SD
[3] = 25 mg/kg single SC dose, all three animals
[4] = 50 mg/kg SC on Study Day 0 and 42, PTM, N = 3, mean ± SD

SMILES: CC(C)(C#Cc1ccc(-c2ccc(Cl)c3c(NS(C)(=O)=O)nn(CC(F)(F)F)c23)c([C@H](Cc2cc(F)cc(F)c2)NC(=O)Cn2nc(C(F)(F)F)c3c2C(F)(F)[C@@H]2C[C@H]32)n1)S(C)(=O)=O [LEN, Lenacapavir]
- range of peak plasma LEN concentration after second dose (15 mg/kg SC on Study Day 0 and 42, PTM): 57 to 77 nM
- AUCinf [1]: 80.9 ± 2.5 μM∗h
- AUClast [1]: 80.7 ± 2.5 μM∗h
- Cmax (15 mg/kg SC on Study Day 0 and 42, PTM, N = 3, mean ± SD, read-out: Cmax (mean peak plasma concentration after second dose)): 67.8 ± 10.1 nM
- mean peak plasma LEN concentration after first dose (15 mg/kg SC, PTM): 16 nM
- range of peak plasma LEN concentration after first dose (15 mg/kg SC, PTM): 10 to 28 nM
- time mean plasma drug concentrations above the PA-EC95 (15 mg/kg SC, PTM): > 189 days
- AUCinf [2]: 92.0 ± 17.8 μM∗h
- AUClast [2]: 91.3 ± 17.8 μM∗h
- plasma LEN concentration at time of stHIV-A19 challenge relative to PA-EC95 (25 mg/kg single SC dose, 30 days after dosing, all 3 animals): > 5 fold
- plasma LEN at 419 days post-challenge (25 mg/kg single SC dose, LEN PrEP animals): no longer detected in plasma
- time plasma LEN concentrations remaining above the PA-EC95 [3]: > 200 days
- time plasma LEN remaining above the lower limit of quantitation (LLOQ, 0.1 nM) [3]: more than one year
- range of peak plasma LEN concentration after second dose (50 mg/kg SC on Study Day 0 and 42, PTM): 234 to 350 nM
- AUCinf [4]: 408 ± 106 μM∗h
- AUClast [4]: 408 ± 106 μM∗h
- mean peak plasma LEN concentration after first dose (50 mg/kg SC, PTM): 95 nM
- range of peak plasma LEN concentration after first dose (50 mg/kg SC, PTM): 48 to 120 nM
- time mean plasma drug concentrations above the PA-EC95 (50 mg/kg SC, PTM): > 245 days
- half-life (male, monkey, in vivo, 15 mg/kg, 15 mg/kg SC on Study Day 0 and 42, PTM, N = 3, mean ± SD, read-out: t1/2 (converted)): 42.1 ± 28.2 days
- half-life (male, monkey, in vivo, 15 mg/kg, 15 mg/kg SC, after second dose, PTM, read-out: mean terminal half-life (t1/2) (converted)): 42 days
- half-life (male, monkey, in vivo, 25 mg/kg, 25 mg/kg single SC dose on Study Day 0, PTM, N = 3, mean ± SD, read-out: t1/2 (converted)): 38.5 ± 14.2 days
- half-life (male, monkey, in vivo, 50 mg/kg, 50 mg/kg SC on Study Day 0 and 42, PTM, N = 3, mean ± SD, read-out: t1/2 (converted)): 48.3 ± 5.83 days
- half-life (male, monkey, in vivo, 50 mg/kg, 50 mg/kg SC, after second dose, PTM, read-out: mean terminal half-life (t1/2) (converted)): 48 days
- Cmax (male, monkey, plasma, Cmax (mean peak plasma concentration after second dose), 15 mg/kg SC on Study Day 0 and 42, PTM, N = 3, mean ± SD, read-out: Cmax (mean peak plasma concentration after second dose)): 68 nM
- Cmax (male, monkey, plasma, Cmax (mean peak plasma concentration after second dose), 50 mg/kg SC on Study Day 0 and 42, PTM, N = 3, mean ± SD, read-out: Cmax (mean peak plasma concentration after second dose)): 295 ± 58 nM
- Cmax (male, monkey, plasma, Cmax, 25 mg/kg single SC dose on Study Day 0, PTM, N = 3, mean ± SD, read-out: Cmax): 47 ± 5.7 nM
- half-life (male, pigtail macaque, in vivo, 25 mg/kg, 25 mg/kg single SC dose, PTM, read-out: mean t1/2 (converted)): 38.5 days
- concentration at 30 days (male, pigtail macaque, in vivo, 25 mg/kg single SC dose, 30 days after dosing, range of 3 animals, read-out: plasma LEN concentrations at the time of stHIV-A19 challenge): 8.6 to 51.2 nM
